According to ChEMBL document CHEMBL1201862, “PubChem BioAssay data set” (2004):
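Exposure lasted 48 hours, with cells grown in 96-well plates and compounds tested at five concentrations. GI50 is the concentration that inhibits growth by half.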 Calls of active or inactive are those of the source. No stated cut-off is given here; in the data, active = GI50 up to about 1.1 µM and inactive = higher.

What was measured:
Test in all cases: NCI-60 cell line screen, 48 h
HL-60 = system: HL-60
IGROV-1 = system: IGROV-1
HCC 2998 = system: HCC 2998
OVCAR-4 = system: OVCAR-4
EKVX = system: EKVX
SNB-75 = system: SNB-75
COLO 205 = system: COLO 205
786-0 = system: 786-0
UACC-62 = system: UACC-62
A549 = system: A549
M14 = system: M14
K562 = system: K562
SNB-19 = system: SNB-19
HT-29 = system: HT-29
Malme-3M = system: Malme-3M
OVCAR-5 = system: OVCAR-5
T47D = system: T47D
SF-539 = system: SF-539
SN12C = system: SN12C
MOLT-4 = system: MOLT-4

Measured: GI50

O=C(SCc1cccc2ccccc12)c1ccc(Cl)cc1
inactive: HL-60 48.5 µM | IGROV-1 > 100 µM | HCC 2998 > 100 µM | OVCAR-4 > 100 µM | EKVX 80 µM | SNB-75 > 100 µM | COLO 205 82.2 µM | 786-0 > 100 µM | UACC-62 > 100 µM | A549 > 100 µM | M14 > 100 µM | K562 48.4 µM | SNB-19 > 100 µM | HT-29 54.2 µM | Malme-3M 96.6 µM | OVCAR-5 > 100 µM | T47D 81.7 µM | SF-539 > 100 µM | SN12C > 100 µM

COC(=O)[C@H](Cc1ccccc1)NP(=O)(O)OCC1OC(n2cc(C)c(=O)[nH]c2=O)CC1N=[N+]=[N-] (stereo partly specified)
inactive: HL-60 > 100 µM | IGROV-1 > 100 µM | HCC 2998 > 100 µM | OVCAR-4 > 100 µM | EKVX > 100 µM | SNB-75 > 100 µM | COLO 205 > 100 µM | 786-0 > 100 µM | A549 > 100 µM | M14 > 100 µM | K562 > 100 µM | SNB-19 > 100 µM | HT-29 > 100 µM | Malme-3M > 100 µM | MOLT-4 > 100 µM | OVCAR-5 > 100 µM | T47D > 100 µM | SF-539 > 100 µM | SN12C > 100 µM

Nn1c(CCCCCCCCc2nnc(-c3c(O)ccc4ccccc34)n2N)nnc1-c1c(O)ccc2ccccc12
inactive: HL-60 > 100 µM | IGROV-1 > 100 µM | HCC 2998 > 100 µM | OVCAR-4 > 100 µM | SNB-75 > 100 µM | COLO 205 > 100 µM | 786-0 > 100 µM | UACC-62 > 100 µM | A549 > 100 µM | M14 > 100 µM | SNB-19 > 100 µM | HT-29 > 100 µM | Malme-3M > 100 µM | MOLT-4 > 100 µM | OVCAR-5 > 100 µM | T47D > 100 µM | SF-539 > 100 µM | SN12C > 100 µM

COc1cc(Nc2nc3ccccc3nc2C(=O)O)cc(OC)c1OC
inactive: HL-60 > 100 µM | IGROV-1 78.3 µM | HCC 2998 69.3 µM | EKVX 30.1 µM | SNB-75 47.2 µM | COLO 205 > 100 µM | 786-0 75.3 µM | A549 > 100 µM | M14 73.6 µM | K562 > 100 µM | SNB-19 70.6 µM | Malme-3M > 100 µM | MOLT-4 > 100 µM | OVCAR-5 > 100 µM | T47D 24.3 µM | SF-539 > 100 µM | SN12C 74.1 µM

CC(NC(=O)C(N)CC(=O)O)NC(=O)N1CCCC1 (stereo unspecified)
inactive: IGROV-1 > 100 µM | HCC 2998 > 100 µM | OVCAR-4 > 100 µM | EKVX > 100 µM | SNB-75 > 100 µM | COLO 205 > 100 µM | 786-0 > 100 µM | UACC-62 > 100 µM | A549 > 100 µM | M14 > 100 µM | K562 > 100 µM | SNB-19 > 100 µM | HT-29 > 100 µM | Malme-3M > 100 µM | MOLT-4 > 100 µM | OVCAR-5 > 100 µM | T47D > 100 µM | SF-539 > 100 µM | SN12C > 100 µM

CCCC[Si](CCCC)(CCCC)O[C@@H](/C=C/C(=O)OCC)[C@H](Cc1ccccc1)O[Si](CCCC)(CCCC)CCCC
inactive: IGROV-1 > 100 µM | HCC 2998 > 100 µM | OVCAR-4 > 100 µM | EKVX > 100 µM | SNB-75 > 100 µM | COLO 205 > 100 µM | 786-0 > 100 µM | UACC-62 > 100 µM | A549 > 100 µM | K562 > 100 µM | SNB-19 > 100 µM | HT-29 > 100 µM | Malme-3M > 100 µM | MOLT-4 > 100 µM | OVCAR-5 > 100 µM | T47D > 100 µM | SF-539 > 100 µM | SN12C > 100 µM

Nc1nc(N)c(N=O)c(Nc2ccc(O)cc2)n1
inactive: HL-60 9.53 µM | IGROV-1 7.82 µM | HCC 2998 72.3 µM | OVCAR-4 > 48.8 µM | EKVX > 69.8 µM | SNB-75 18.2 µM | COLO 205 57.5 µM | 786-0 > 55.7 µM | UACC-62 41 µM | A549 > 81.3 µM | M14 6.05 µM | K562 > 45.6 µM | SNB-19 > 52 µM | HT-29 18 µM | Malme-3M 33.4 µM | MOLT-4 16.1 µM | T47D 14.9 µM | SF-539 6.56 µM | SN12C 31.1 µM

Cn1c(-c2ccccc2)cc(-c2ccc3c(c2)OCO3)c1-c1cccs1
inactive: HL-60 > 100 µM | IGROV-1 > 100 µM | HCC 2998 > 100 µM | OVCAR-4 > 100 µM | EKVX > 100 µM | SNB-75 > 100 µM | COLO 205 > 100 µM | 786-0 > 100 µM | UACC-62 > 100 µM | A549 > 100 µM | M14 > 100 µM | K562 > 100 µM | SNB-19 > 100 µM | HT-29 > 100 µM | MOLT-4 > 100 µM | OVCAR-5 > 100 µM | T47D > 100 µM | SF-539 > 100 µM | SN12C > 100 µM

O=[N+]([O-])c1ccc(/C=C\c2ccc3c(c2)OCO3)c([N+](=O)[O-])c1
inactive: HL-60 17.4 µM | IGROV-1 12.2 µM | HCC 2998 14.5 µM | EKVX 13 µM | SNB-75 17.7 µM | COLO 205 18.4 µM | 786-0 16.9 µM | UACC-62 18.7 µM | A549 20.1 µM | M14 15.3 µM | K562 21.3 µM | SNB-19 17.3 µM | HT-29 19.9 µM | Malme-3M 19.7 µM | MOLT-4 17.5 µM | OVCAR-5 18.7 µM | T47D 44.1 µM | SF-539 20 µM | SN12C 17.5 µM

C[C@H](OC(=O)/C=C/c1ccc(O)c(O)c1)[C@H](C)OC(=O)/C=C/c1ccc(O)c(O)c1
inactive: IGROV-1 5.2 µM | HCC 2998 11.5 µM | OVCAR-4 5.09 µM | EKVX 14.7 µM | SNB-75 15.7 µM | COLO 205 20.3 µM | 786-0 4.73 µM | UACC-62 2.93 µM | A549 7.94 µM | M14 6.19 µM | K562 4.61 µM | SNB-19 7.93 µM | HT-29 12.2 µM | Malme-3M 14.7 µM | MOLT-4 2.49 µM | OVCAR-5 14 µM | T47D 4.41 µM | SF-539 9.48 µM | SN12C 11.5 µM
